Measured values from ChEMBL document CHEMBL4483862, “Open-source discovery of chemical leads for next-generation chemoprotective antimalarials” (2018).

System: Plasmodium berghei
Assay: Luciferase/luciferin-expressing antifolate-resistant parasites were used to infect a culture of HepG2 cells that were pre-incubated with compounds. Infected hepatocytes emit light due to the luciferase reaction. Assay results are presented as the percent inhibition of light emission compared to control. […]
Type: functional
Settings: sporozoite; for IC90: read-out: LUCIFERASE INFECTION ASSAY - IC90

| Compound | IC90 | further results |
| --- | --- | --- |
| O=C1c2n[nH]c(-c3ccccc3O)c2C(c2ccccc2F)N1Cc1ccco1 (configuration not stated) | > 8.47 µM | IC50 (FFLUC_HILL_SLOPE 2.17, FFLUC_R_SQUARED 0.481, read-out: LUCIFERASE INFECTION ASSAY - IC50): > 8.47 µM |
| O=C(O)c1cnc2cc(Cl)cc(Cl)c2c1O | > 12.8 µM | IC50 (FFLUC_HILL_SLOPE 2.26, FFLUC_R_SQUARED 0.266, PBLUC_HILL_SLOPE 1.77, PBLUC_R_SQUARED 0.584, read-out: LUCIFERASE INFECTION ASSAY - IC50): 8.35 µM |
| CN(c1ccccc1)c1cc(C(=O)Nc2ccccc2)ncn1 | 0.681 µM | IC50 (FFLUC_HILL_SLOPE 2.25, FFLUC_R_SQUARED 0.879, PBLUC_HILL_SLOPE 0.724, PBLUC_R_SQUARED 0.686, read-out: LUCIFERASE INFECTION ASSAY - IC50): 0.0327 µM |
| COc1ccccc1-n1nnnc1SCC(O)Cn1c2ccccc2c2ccccc21 (configuration not stated) | > 10 µM | IC50 (FFLUC_HILL_SLOPE 2.23, FFLUC_R_SQUARED 0.596, PBLUC_HILL_SLOPE 13.3, PBLUC_R_SQUARED 0.223, read-out: LUCIFERASE INFECTION ASSAY - IC50): 9.95 µM |
| Cc1ccc2c(c1)NC(C)c1ccccc1O2 (configuration not stated) | > 10 µM | IC50 (FFLUC_HILL_SLOPE 2.08, FFLUC_R_SQUARED 0.224, HEPG2TOX_HILL_SLOPE 6.95, HEPG2TOX_R_SQUARED 0.413, PBLUC_HILL_SLOPE 13.7, PBLUC_R_SQUARED 0.727, read-out: LUCIFERASE INFECTION ASSAY - IC50): 8.91 µM |
| CN1/C(=C\C(=O)CCCSc2nnc(-c3ccccc3)n2N)C(C)(C)c2ccccc21 | > 10 µM | IC50 (FFLUC_HILL_SLOPE 2.28, FFLUC_R_SQUARED 0.541, HEPG2TOX_HILL_SLOPE 7.74, HEPG2TOX_R_SQUARED 0.566, PBLUC_HILL_SLOPE 1.71, PBLUC_R_SQUARED 0.591, read-out: LUCIFERASE INFECTION ASSAY - IC50): 3.64 µM |
| Cc1[nH]c2ccccc2c1C1=NNC(=NCc2ccc3c(c2)OCO3)SC1 | > 10 µM | IC50 (FFLUC_HILL_SLOPE 2.18, FFLUC_R_SQUARED 0.288, PBLUC_HILL_SLOPE 2.54, PBLUC_R_SQUARED 0.596, read-out: LUCIFERASE INFECTION ASSAY - IC50): 4.55 µM |
| Cc1cc(C(=O)C(C)OC(=O)c2ccc(NS(=O)(=O)c3ccc4c(c3)OCCO4)cc2)c(C)n1-c1ccc(Cl)cc1 (configuration not stated) | > 10 µM | IC50 (FFLUC_HILL_SLOPE 2.2, FFLUC_R_SQUARED 0.531, HEPG2TOX_HILL_SLOPE 0.947, HEPG2TOX_R_SQUARED 0.641, PBLUC_HILL_SLOPE 4.36, PBLUC_R_SQUARED 0.544, read-out: LUCIFERASE INFECTION ASSAY - IC50): 6.62 µM |
| O=C(Nc1cc(S(=O)(=O)c2ccccc2)cs1)c1cccc(Cl)c1 | > 8.73 µM | IC50 (FFLUC_HILL_SLOPE 2.16, FFLUC_R_SQUARED 0.469, read-out: LUCIFERASE INFECTION ASSAY - IC50): > 8.73 µM |
| CCOc1ncccc1C(=O)Nc1cc(S(=O)(=O)N2CCOCC2)ccc1Oc1ccccc1 | > 10 µM | IC50 (FFLUC_HILL_SLOPE 2.19, FFLUC_R_SQUARED 0.739, read-out: LUCIFERASE INFECTION ASSAY - IC50): > 10 µM |
| CN(C)CCNCCCOc1ccc(C(C)(C)c2ccccc2)cc1 | > 10 µM | IC50 (FFLUC_HILL_SLOPE 2.11, FFLUC_R_SQUARED 0.273, PBLUC_HILL_SLOPE 1.18, PBLUC_R_SQUARED 0.227, read-out: LUCIFERASE INFECTION ASSAY - IC50): 5.92 µM |
| O=C1/C(=C/c2ccc(-n3nncc3C34CC5CC(CC(C5)C3)C4)cc2)CCC/C1=C\c1ccc(-n2nncc2C23CC4CC(CC(C4)C2)C3)cc1 | 4.22 µM | IC50 (FFLUC_HILL_SLOPE 2.2, FFLUC_R_SQUARED 0.872, HEPG2TOX_HILL_SLOPE 3.7, HEPG2TOX_R_SQUARED 0.967, PBLUC_HILL_SLOPE 5.71, PBLUC_R_SQUARED 0.867, read-out: LUCIFERASE INFECTION ASSAY - IC50): 2.87 µM |
| COc1ccc2c(CC(=O)N(c3cc(C)cc(C)c3)c3nc(-c4ccc(Br)cc4)cs3)coc2c1 | > 10 µM | IC50 (FFLUC_HILL_SLOPE 2.23, FFLUC_R_SQUARED 0.6, read-out: LUCIFERASE INFECTION ASSAY - IC50): > 10 µM |
| CCCN(CCC)S(=O)(=O)c1ccc(-n2ncc(Cl)c(Cl)c2=O)cc1 | 2.67 µM | IC50 (FFLUC_HILL_SLOPE 2.22, FFLUC_R_SQUARED 0.495, HEPG2TOX_HILL_SLOPE 4.03, HEPG2TOX_R_SQUARED 0.969, PBLUC_HILL_SLOPE 5.8, PBLUC_R_SQUARED 0.662, read-out: LUCIFERASE INFECTION ASSAY - IC50): 1.83 µM |
| CC1Cc2cc(C3=NNC(=NC4CC4)SC3)ccc2N1S(C)(=O)=O (configuration not stated) | 1.38 µM | IC50 (FFLUC_HILL_SLOPE 2.25, FFLUC_R_SQUARED 0.383, HEPG2TOX_HILL_SLOPE 1.12, HEPG2TOX_R_SQUARED 0.483, PBLUC_HILL_SLOPE 1.74, PBLUC_R_SQUARED 0.672, read-out: LUCIFERASE INFECTION ASSAY - IC50): 0.197 µM |
| Cc1onc(-c2c(Cl)cccc2Cl)c1NC(=O)Nc1cscc1S(=O)(=O)C(C)C | > 6.96 µM | IC50 (FFLUC_HILL_SLOPE 2.28, FFLUC_R_SQUARED 0.234, read-out: LUCIFERASE INFECTION ASSAY - IC50): > 6.96 µM |

| Compound | IC90 | further results |
| --- | --- | --- |
| C=CCN(c1ccccc1)S(=O)(=O)c1ccc(Cl)c(C(=O)Nc2ccc(N(c3ccccc3)C(C)C)cc2)c1 | 8.36 µM | IC50 (FFLUC_HILL_SLOPE 2.09, FFLUC_R_SQUARED 0.761, HEPG2TOX_HILL_SLOPE 2.29, HEPG2TOX_R_SQUARED 0.839, PBLUC_HILL_SLOPE 16.1, PBLUC_R_SQUARED 0.248, read-out: LUCIFERASE INFECTION ASSAY - IC50): 7.29 µM |
| CCc1c(C(=O)/C=C/c2cccc(C#N)c2)oc2ccccc12 | 9.02 µM | IC50 (FFLUC_HILL_SLOPE 2.17, FFLUC_R_SQUARED 0.174, HEPG2TOX_HILL_SLOPE 14.7, HEPG2TOX_R_SQUARED 0.793, PBLUC_HILL_SLOPE 2.78, PBLUC_R_SQUARED 0.439, read-out: LUCIFERASE INFECTION ASSAY - IC50): 4.09 µM |
| Cc1nn(-c2ccccc2)c2nc(-c3cccs3)cc(C(=O)N3CCc4ccccc43)c12 | > 10 µM | IC50 (FFLUC_HILL_SLOPE 2.26, FFLUC_R_SQUARED 0.632, PBLUC_HILL_SLOPE 0.862, PBLUC_R_SQUARED 0.727, read-out: LUCIFERASE INFECTION ASSAY - IC50): 4.63 µM |
| CC(C)CN1/C(=C\c2cccc3[nH]ccc23)C(=O)c2ccccc2S1(=O)=O | > 8.67 µM | IC50 (FFLUC_HILL_SLOPE 2.19, FFLUC_R_SQUARED 0.818, HEPG2TOX_HILL_SLOPE 2.77, HEPG2TOX_R_SQUARED 0.93, read-out: LUCIFERASE INFECTION ASSAY - IC50): > 8.67 µM |
| COc1ccc(-c2nnc(SCn3nnc4ccccc4c3=O)n2-c2ccccc2C(C)C)cc1 | > 10 µM | IC50 (FFLUC_HILL_SLOPE 2.15, FFLUC_R_SQUARED 0.39, read-out: LUCIFERASE INFECTION ASSAY - IC50): > 10 µM |
| COC(=O)C1=C2N(C)c3ccccc3N2C(Nc2ccc(C)cc2)=NC1C(F)(F)F.Cc1ccc(C)cc1 (configuration not stated) | > 10 µM | IC50 (FFLUC_HILL_SLOPE 2.2, FFLUC_R_SQUARED 0.697, HEPG2TOX_HILL_SLOPE 5.36, HEPG2TOX_R_SQUARED 0.5, PBLUC_HILL_SLOPE 4.61, PBLUC_R_SQUARED 0.0573, read-out: LUCIFERASE INFECTION ASSAY - IC50): 7.42 µM |
| Cc1cccc(-c2nn(-c3ccccc3)cc2/C=C2\CCn3c2nc2cc(Cl)ccc2c3=O)c1 | > 10 µM | IC50 (FFLUC_HILL_SLOPE 2.22, FFLUC_R_SQUARED 0.239, read-out: LUCIFERASE INFECTION ASSAY - IC50): > 10 µM |
| Cc1cc(/C=N/Nc2nc3ccccc3[nH]2)c(C)n1-c1ccc(Cl)c(C(F)(F)F)c1 | 4.05 µM | IC50 (FFLUC_HILL_SLOPE 2.14, FFLUC_R_SQUARED 0.676, PBLUC_HILL_SLOPE 2.82, PBLUC_R_SQUARED 0.68, read-out: LUCIFERASE INFECTION ASSAY - IC50): 1.86 µM |
| Fc1ccc(CNc2n[nH]c(=S)s2)cc1 | > 13.7 µM | IC50 (FFLUC_HILL_SLOPE 2.08, FFLUC_R_SQUARED 0.432, read-out: LUCIFERASE INFECTION ASSAY - IC50): > 13.7 µM |
| CCSC1=N/C(=C\c2cc(C(C)(C)C)c(O)c(C(C)(C)C)c2)C(=O)S1 | > 8.74 µM | IC50 (FFLUC_HILL_SLOPE 2.27, FFLUC_R_SQUARED 0.423, read-out: LUCIFERASE INFECTION ASSAY - IC50): > 8.74 µM |
| Cc1ccc(OCCOC(=O)c2cc(=O)[nH]c3ccccc23)cc1 | > 10 µM | IC50 (FFLUC_HILL_SLOPE 2.13, FFLUC_R_SQUARED 0.116, read-out: LUCIFERASE INFECTION ASSAY - IC50): > 10 µM |
| CN(C)c1ccc(/C=C(\C#N)C(=O)c2ccc(-n3nncc3C34CC5CC(CC(C5)C3)C4)cc2)cc1 | > 10 µM | IC50 (FFLUC_HILL_SLOPE 2.12, FFLUC_R_SQUARED 0.418, PBLUC_HILL_SLOPE 11.3, PBLUC_R_SQUARED 0.267, read-out: LUCIFERASE INFECTION ASSAY - IC50): > 10 µM |
| Nc1c(C(=O)c2ccc(Cl)cc2)sc(NCc2ccco2)c1C(=O)Nc1cc(Cl)ccc1Cl | 4.4 µM | IC50 (FFLUC_HILL_SLOPE 2.13, FFLUC_R_SQUARED 0.528, HEPG2TOX_HILL_SLOPE 16.1, HEPG2TOX_R_SQUARED 0.784, PBLUC_HILL_SLOPE 2.08, PBLUC_R_SQUARED 0.686, read-out: LUCIFERASE INFECTION ASSAY - IC50): 1.53 µM |
| Nc1cc(Cl)c(-n2cccc2)cc1Oc1ccc(Cl)cc1 | > 10.3 µM | IC50 (FFLUC_HILL_SLOPE 2.28, FFLUC_R_SQUARED 0.58, read-out: LUCIFERASE INFECTION ASSAY - IC50): > 10.3 µM |
| O=C1C=CC(=O)N1c1ccc(F)c(Cl)c1 | > 14.6 µM | IC50 (FFLUC_HILL_SLOPE 2.09, FFLUC_R_SQUARED 0.475, HEPG2TOX_HILL_SLOPE 6.94, HEPG2TOX_R_SQUARED 0.217, PBLUC_HILL_SLOPE 8.9, PBLUC_R_SQUARED 0.496, read-out: LUCIFERASE INFECTION ASSAY - IC50): 13.6 µM |
